Activity calls are given as the source filed them.
Columns and labels:
INS1 = experiment: beta cell apoptosis inhibitors, cytokine rescue, dose response, luminescence, retest (AID 449756); type: functional, cell-based; conditions: Rattus norvegicus, INS1;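 further: cell death triggered by IL-1 beta plus TNF-alpha plus IFN-gamma mixture; protective hits raise ATP signal compared with cytokine alone wells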
Cytochrome P450 3A4 = Cytochrome P450 3A4 (Homo sapiens, UniProt P08684);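 further: CYP3A4 tested as one member of a cytochrome P450 panel screen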
Cytochrome P450 3A4, sequence (P08684 whole entry): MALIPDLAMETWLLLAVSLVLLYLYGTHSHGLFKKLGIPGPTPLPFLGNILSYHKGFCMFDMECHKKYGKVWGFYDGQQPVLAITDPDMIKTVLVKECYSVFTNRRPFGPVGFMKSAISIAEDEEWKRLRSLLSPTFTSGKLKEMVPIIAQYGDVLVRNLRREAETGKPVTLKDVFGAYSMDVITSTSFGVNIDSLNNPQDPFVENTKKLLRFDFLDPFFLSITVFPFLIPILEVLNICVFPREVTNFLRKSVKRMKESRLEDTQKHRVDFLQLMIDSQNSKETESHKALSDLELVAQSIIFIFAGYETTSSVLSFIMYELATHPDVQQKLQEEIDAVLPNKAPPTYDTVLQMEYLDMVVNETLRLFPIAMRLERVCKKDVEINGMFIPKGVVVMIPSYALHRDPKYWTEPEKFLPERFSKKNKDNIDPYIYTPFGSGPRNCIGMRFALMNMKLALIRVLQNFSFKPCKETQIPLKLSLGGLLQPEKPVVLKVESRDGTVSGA

[1] = inhibitors of intracellular T. cruzi replication, confirmation, NIH3T3 host cells, beta-gal luminescence (AID 2044); type: functional, cell-based;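 further: intracellular parasites grown in NIH/3T3 mouse fibroblasts as host cells; luminescent beta-galactosidase reporter signal from transgenic T. cruzi replicating inside host cells; inhibitors lower the luminescence signal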
[2] = cytotoxicity toward NIH3T3 fibroblasts, dose response, counter-screen, cell-based, ATP luminescence, mouse fibroblasts (AID 2010); type: functional;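 further: cells exposed to compound for about 90 hours before reading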
Cytochrome P450 1A2 = biological target: T1, Cytochrome P450 1A2 (Homo sapiens, UniProt P05177);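 further: PubChem cytochrome P450 panel assay, CYP1A2 panel member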
T1 sequence (P05177 whole entry): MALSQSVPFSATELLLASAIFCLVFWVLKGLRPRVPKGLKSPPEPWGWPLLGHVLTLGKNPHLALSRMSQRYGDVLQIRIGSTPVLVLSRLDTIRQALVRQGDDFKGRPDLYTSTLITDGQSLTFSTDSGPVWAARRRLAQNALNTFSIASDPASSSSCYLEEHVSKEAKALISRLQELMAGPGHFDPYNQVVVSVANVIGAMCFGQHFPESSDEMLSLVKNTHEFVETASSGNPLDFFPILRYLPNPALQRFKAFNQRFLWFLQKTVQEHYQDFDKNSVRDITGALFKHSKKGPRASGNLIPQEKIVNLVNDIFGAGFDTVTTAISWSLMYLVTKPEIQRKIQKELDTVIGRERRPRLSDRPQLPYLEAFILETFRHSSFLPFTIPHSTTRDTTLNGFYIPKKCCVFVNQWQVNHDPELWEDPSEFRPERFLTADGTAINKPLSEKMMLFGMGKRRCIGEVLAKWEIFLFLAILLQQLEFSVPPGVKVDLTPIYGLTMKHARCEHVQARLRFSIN

SMILES	EC50 [1]	EC50 [2]	other results
CCN(CC)CCN1c2ccccc2Sc2ccc3ccccc3c21	–	–	AC50 (INS1): 14 µM (active)
COc1ccc(CCNC[C@H](O)c2ccc(O)cc2)cc1OC [DENOPAMINE]	–	–	AC50 (Cytochrome P450 3A4): 25.1 µM (inconclusive)
O=C(Nc1ccc(F)cc1F)N1CCCCC1c1cccnc1 (centres undefined)	0.654 µM (active)	> 60 µM (not active)	–
COc1ccc(-c2nc3cnc(N4CCN(C)CC4)nc3n(C)c2=O)cc1	–	–	AC50 (Cytochrome P450 1A2): 25.1 µM (inconclusive)
CCN(CC(=O)Nc1ccc(NC(C)=O)cc1)C(=O)CCCOc1ccc(C(C)(C)C)cc1	–	–	AC50 (INS1): 23.7 µM (active)
CC(C)(C)C(=O)Nc1ccnc(-c2cccnc2)n1	–	–	AC50 (Cytochrome P450 3A4): 2.51 µM (inconclusive)
N#Cc1ccc(CN2CC[C@@]3(CCCNC3)C2)cc1	–	–	AC50 (Cytochrome P450 3A4): 31.6 µM (inconclusive); AC50 (Cytochrome P450 1A2): 25.1 µM (inconclusive)
CC(CN1CCN(C)CC1)OC(=O)c1ccc(Cl)cc1 (centres undefined)	0.606 µM (active)	> 60 µM (not active)	–
O=C(Nc1cccc(-c2cn3cccnc3n2)c1)c1ccco1	0.941 µM (active)	> 30 µM (not active)	AC50 (Cytochrome P450 3A4): 25.1 µM (inconclusive)
COc1ccc(N(C)S(=O)(=O)c2ccc3c(c2)CCC(=O)N3)cc1	–	–	AC50 (Cytochrome P450 3A4): 3.55 µM (inconclusive); AC50 (Cytochrome P450 1A2): 0.01 µM (inconclusive)
O=C(O)c1ccccc1C(=O)Nc1cc2c(cc1Br)-c1ccccc1C2=O	–	–	AC50 (Cytochrome P450 1A2): 0.631 µM (inconclusive)
O=C(NCc1cccnc1)c1sc2cc(Cl)ccc2c1Cl	–	–	AC50 (Cytochrome P450 3A4): 0.891 µM (inconclusive)
CC(=O)N1CCN(C(=O)CC2OC(=O)c3ccccc32)CC1 (centres undefined)	–	–	AC50 (Cytochrome P450 1A2): 22.4 µM (inconclusive)
O=C(C1CCCN(Cc2cccc(Cl)c2)C1)N1CCCCC1 (centres undefined)	0.167 µM (active)	> 30 µM (not active)	–
CC(C)Cc1ccc(CN2CCC(n3nccc3NC(=O)C3CCCC3)CC2)cc1	0.313 µM (active)	> 60 µM (not active)	–
Cc1ccc(OC[C@H](O)[C@H](C)NC(C)C)c2c1CCC2	–	–	AC50 (Cytochrome P450 3A4): 31.6 µM (inconclusive)

SMILES	EC50 [1]	EC50 [2]	other results
CC(C)[C@H](Sc1nc(N)nc2[nH]cnc12)C(=O)O	–	–	AC50 (Cytochrome P450 1A2): 0.316 µM (inconclusive)
COCCNC(=O)CSc1nc2ccc(N3CCOCC3)cc2c(=O)n1Cc1ccc(OC)cc1	–	–	AC50 (Cytochrome P450 1A2): 15.8 µM (inconclusive)
O=C(CN1CCC(C(O)(c2ccccc2)c2ccccc2)CC1)Nc1cc(Cl)ccc1Cl	1.38 µM (active)	9.41 µM (active)	–
CCC(CO)Oc1cc(NCc2ccc(C(C)(C)C)cc2)c2ncn(C(C)C)c2c1 (centres undefined)	–	–	AC50 (INS1): 3.07 µM (active)
C=C(C)CSc1nc2sc3c(c2c(=O)n1-c1ccccc1)CCN(C)C3	0.197 µM (active)	> 30 µM (not active)	–
CCOC(=O)Cc1ccc(NCc2ccc(Cl)cc2)cc1	1.47 µM (active)	> 30 µM (not active)	–
CCOc1cc(/C=N/NC(=O)c2cc(-c3cccc(OC)c3)nc3ccccc23)ccc1O	–	–	AC50 (INS1): 8.15 µM (active)
COCCn1c(SCC(=O)NC(=O)NCc2ccccc2)nc2ccccc21	1.14 µM (active)	> 60 µM (not active)	–
CN1CCCC2(CCN(C(=O)c3cnccn3)CC2)C1	–	–	AC50 (Cytochrome P450 3A4): 25.1 µM (inconclusive)
Cc1ccc(S(=O)(=O)c2ccccc2)cc1S	0.983 µM (active)	> 30 µM (not active)	–
COc1cc(OC)cc(C(=O)Nn2cc(C(=O)N3CCN(C)CC3)c3ccccc3c2=O)c1	–	–	AC50 (Cytochrome P450 3A4): 28.2 µM (inconclusive); AC50 (Cytochrome P450 1A2): 10 µM (inconclusive)
CCN1C(=O)[C@H]2[C@@H](c3ccc(-c4cccc(Cl)c4)cc3)N[C@@](Cc3ccccc3)(C(=O)OC)[C@H]2C1=O	2.06 µM (active)	14.6 µM (active)	–
CCc1noc(C)c1C(=O)N1CCCC(C(=O)c2cc(F)ccc2OC)C1 (centres undefined)	9.23 µM (active)	> 60 µM (not active)	–
COc1ccccc1CN1C[C@@H]2C[C@@H](c3ccc(C)c(C)c3)N3CCC[C@@]23C1=O	2.26 µM (active)	> 30 µM (not active)	–
O=C(CCN1CCN(Cc2ccccc2)CC1)Nc1cccc(Cl)c1	0.965 µM (active)	> 60 µM (not active)	–
